Experimental data taken from ChEMBL document CHEMBL5380842, “Discovery of a Potent and Selective CCR8 Small Molecular Antagonist IPG7236 for the Treatment of Cancer” (J Med Chem, 2023).

How the values were obtained:
[1] = Unbound fraction in human plasma; type: ADME, cell-free
[2] = Stability in mouse liver microsomes assessed as half life; type: ADME, Microsome
Cytochrome P450 3A4 [3] = target: T1, Cytochrome P450 3A4 (Homo sapiens, UniProt P08684); test: Inhibition of CYP3A4-T (unknown origin); type: ADME
Cytochrome P450 3A4 [4] = target: T1, Cytochrome P450 3A4; test: Inhibition of CYP3A4-M (unknown origin); type: ADME
[5] = target: Voltage-gated inwardly rectifying potassium channel KCNH2 (Homo sapiens, UniProt Q12809); test: Inhibition of hERG; type: toxicity
[6] = Cytotoxicity against human primary hepatocytes; type: toxicity, cell-based, Hepatocyte
[7] = AUClast in ICR mouse at 1 mg/kg, iv; type: ADME, organism-based; set-up: dose 1 mg/kg, route iv; conditions: in vivo
[8] = Clearance in Sprague-Dawley rat at 1 mg/kg, iv; type: ADME, organism-based; conditions: in vivo
[9] = AUClast in Sprague-Dawley rat at 1 mg/kg, iv; type: ADME, organism-based; set-up: dose 1 mg/kg, route iv; conditions: in vivo
[10] = AUClast in Sprague-Dawley rat at 50 mg/kg, po; type: ADME, organism-based; set-up: dose 50 mg/kg, route po; conditions: in vivo
[11] = Oral bioavailability in Sprague-Dawley rat at 50 mg/kg; type: ADME, organism-based; conditions: in vivo
[12] = AUClast in Beagle dog at 10 mg/kg, po; type: ADME, organism-based, Canis lupus familiaris; set-up: dose 10 mg/kg, route po; conditions: in vivo
[13] = Oral bioavailability in Beagle dog at 10 mg/kg; type: ADME, organism-based, Canis lupus familiaris; conditions: in vivo
[14] = Tmax in Cynomolgous monkey at 50 mg/kg, po; type: ADME, organism-based, Macaca fascicularis; conditions: cynomolgus monkey, in vivo
[15] = Oral bioavailability in Cynomolgous monkey at 50 mg/kg; type: ADME, organism-based, Macaca fascicularis; conditions: cynomolgus monkey, in vivo
MDA-MB-231 [16] = test: Antitumor activity against human MDA-MB-231 cells xenografted in humanized NCG mouse assessed as tumor growth inhibition at 50 mg/kg, IG bid measured after 22 days relative to control; type: functional; conditions: MDA-MB-231, po, 528 h, time 22 day, read-out: TGI
MDA-MB-231 [17] = test: Antitumor activity against human MDA-MB-231 cells xenografted in humanized NCG mouse assessed as decrease in tumor-infiltrating Treg cells administered intragastrically twice everyday; type: functional, cell-based; conditions: dose 2-50 mg/kg, route ig
MDA-MB-231 [18] = test: Antitumor activity against human MDA-MB-231 cells xenografted in humanized NCG mouse assessed as […] in tumor-infiltrating CD8+ T cells administered intragastrically twice everyday; type: functional, cell-based; conditions: dose 2-50 mg/kg, route ig
[19] = Toxicity in humanized NCG mouse xenografted with human MDA-MB-231 cells administered intragastrically twice everyday; conditions: in vivo, po

T1 sequence (P08684 whole entry): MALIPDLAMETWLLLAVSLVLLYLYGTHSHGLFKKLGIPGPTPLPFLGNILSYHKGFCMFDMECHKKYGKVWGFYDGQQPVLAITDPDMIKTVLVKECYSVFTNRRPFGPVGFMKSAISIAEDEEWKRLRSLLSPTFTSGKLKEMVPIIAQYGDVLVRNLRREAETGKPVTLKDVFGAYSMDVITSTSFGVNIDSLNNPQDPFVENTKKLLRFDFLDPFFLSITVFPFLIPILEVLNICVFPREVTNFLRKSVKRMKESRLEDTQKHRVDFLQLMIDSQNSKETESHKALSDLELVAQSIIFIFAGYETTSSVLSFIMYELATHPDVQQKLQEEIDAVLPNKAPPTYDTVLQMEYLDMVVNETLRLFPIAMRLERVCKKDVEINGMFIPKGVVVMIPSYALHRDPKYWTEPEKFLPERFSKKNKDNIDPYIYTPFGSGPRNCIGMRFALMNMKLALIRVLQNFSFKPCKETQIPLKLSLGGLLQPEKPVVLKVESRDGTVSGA
Voltage-gated inwardly rectifying potassium channel KCNH2, sequence (Q12809 whole entry): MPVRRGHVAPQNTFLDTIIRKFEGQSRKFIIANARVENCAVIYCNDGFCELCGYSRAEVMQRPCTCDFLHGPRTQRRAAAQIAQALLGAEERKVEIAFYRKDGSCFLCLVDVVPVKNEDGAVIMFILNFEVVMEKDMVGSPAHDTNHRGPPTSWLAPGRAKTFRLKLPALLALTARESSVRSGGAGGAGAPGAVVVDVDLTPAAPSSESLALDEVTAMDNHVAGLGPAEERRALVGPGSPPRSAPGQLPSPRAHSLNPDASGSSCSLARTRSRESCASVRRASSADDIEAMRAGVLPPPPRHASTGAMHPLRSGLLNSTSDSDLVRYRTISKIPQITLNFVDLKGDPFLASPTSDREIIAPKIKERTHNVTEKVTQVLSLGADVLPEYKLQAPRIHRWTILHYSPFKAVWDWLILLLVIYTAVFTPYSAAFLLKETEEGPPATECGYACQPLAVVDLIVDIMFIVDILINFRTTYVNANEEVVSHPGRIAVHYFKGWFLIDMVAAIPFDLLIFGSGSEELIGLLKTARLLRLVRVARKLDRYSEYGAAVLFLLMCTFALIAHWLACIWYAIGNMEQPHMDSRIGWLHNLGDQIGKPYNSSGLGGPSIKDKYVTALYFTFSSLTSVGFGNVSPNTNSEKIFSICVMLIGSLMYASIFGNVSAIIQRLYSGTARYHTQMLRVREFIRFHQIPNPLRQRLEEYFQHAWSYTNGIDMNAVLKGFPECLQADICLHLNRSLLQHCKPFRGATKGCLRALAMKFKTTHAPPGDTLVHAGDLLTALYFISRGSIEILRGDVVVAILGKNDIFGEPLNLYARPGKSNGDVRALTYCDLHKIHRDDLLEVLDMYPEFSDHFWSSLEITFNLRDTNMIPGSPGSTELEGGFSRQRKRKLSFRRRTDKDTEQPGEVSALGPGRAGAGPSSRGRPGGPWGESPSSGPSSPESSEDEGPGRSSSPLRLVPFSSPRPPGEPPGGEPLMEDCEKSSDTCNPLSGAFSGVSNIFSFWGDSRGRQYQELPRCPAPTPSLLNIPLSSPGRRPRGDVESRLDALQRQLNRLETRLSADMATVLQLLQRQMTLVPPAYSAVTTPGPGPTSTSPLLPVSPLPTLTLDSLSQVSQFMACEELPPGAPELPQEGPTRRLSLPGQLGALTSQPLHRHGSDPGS

## Cc1cc(S(=O)(=O)N[C@H](C)C2CCN(C)CC2)ccc1NC(=O)c1ccccc1C
[1]
  fraction unbound: 0.358
[2]
  half-life: 0.433 h
Cytochrome P450 3A4 [3]
  IC50: > 10 µM
Cytochrome P450 3A4 [4]
  IC50: > 10 µM
[5]
  IC50: > 30 µM
[6]
  IC50: > 150 µM
[7]
  AUC(0-t): 666 ng·h/mL
[8]
  clearance: 40.9 mL/min/kg
[9]
  AUC(0-t): 395 ng·h/mL
[10]
  AUC(0-t): 13600 ng·h/mL
[11]
  bioavailability: 66%
[12]
  AUC(0-t): 6480 ng·h/mL
[13]
  bioavailability: 55%
[14]
  Tmax: 2.3 h
[15]
  bioavailability: 105%
MDA-MB-231 [16]
  inhibition in vivo at 50 mg/kg: 55.6%
MDA-MB-231 [17]
  Activity: Dose-Dependent Effect
MDA-MB-231 [18]
  Activity: Dose-Dependent Effect
[19]
  MED: 10 mg/kg
